Tested on: S. aureus RN4220 lysate
Assay: Bacterial lysate carbamate cleavage assay (LC/MS)
Type: in vitro ADME, Staphylococcus aureus
Details: 400 μM, 16 h; for cleavage in S. aureus lysate: LC/MS; for degree of carbamate cleavage to 8h: S. aureus lysate
Experimental: An overnight culture of S. aureus RN4220 was set up in TSB medium (BD Bacto Tryptic Soy Broth). The next day, a 150 mL day culture was started at an initial OD600 of 0.1. The culture was incubated at 200 rpm shaking at 37 °C. The bacteria were harvested after 3 h and 40 min (OD600 = 3.30). A 1 mL aliquot was retained to determine cell number. 150 mL of the culture was centrifuged at 4000 rpm for 10 min at 4 °C. The resulting pellet was resuspended in 10 mL of JB Lysis Buffer (0.1% Triton X-100, 20 mM Tris-HCl, 150 mM KCl, 1 mM MgCl2, 1 mM DTT, and protease inhibitors) and transferred to FastPrep tubes. Cells were mechanically lysed (2 × 30 s, 6.5 m/s) and cooled for 5 min on ice. The samples were centrifuged, and the supernatant was transferred to a new tube. Subsequently, it was centrifuged again at 5000 rpm for 30 min at 4 °C. The pellet was washed three times with 1× PBS, reducing the volume to 1 mL. Protein concentration was determined using the Pierce BCA Protein Assay Kit (Thermo Scientific). The final sample was frozen in liquid nitrogen and stored at −80 °C. 100 μL of this lysate was incubated with 8f–h (final concentration 400 μM, 2% DMSO) for 16 h at 30 °C. Afterward, 100 μL acetonitrile was added, and the samples were passed through a syringe filter. Ten μL of the samples were injected during LC/MS (Agilent 1100 system, LC/MSD trap) using an Agilent Poroshell 120 EC-C18 150 × 2.10 mm 4 μm column; mobile phase (gradient: acetonitrile/H2O, 0.1% formic acid). The LC/MS chromatograms and their corresponding mass spectra (base-peak) were analyzed using MestReNova (12.0.4) for prodrug deprotection products.

SMILES	cleavage in S. aureus lysate	degree of carbamate cleavage to 8h [%]
O=C(/N=C(\NCCn1cc(-c2c[nH]c3nc[nH]c(=O)c23)nn1)NC(=O)OCc1ccccc1)OCc1ccccc1 [Compound 8f]	readily cleaved	~30
CC(C)(C)OC(=O)/N=C(\NCCn1cc(-c2c[nH]c3nc[nH]c(=O)c23)nn1)NC(=O)OC(C)(C)C [Compound 8g]	readily cleaved	~30

— PMC12751012, “Nanoscale Direct-to-Biology Optimization and Structural Insights into Selective S. aureus TrmD Inhibitors” (Journal of Medicinal Chemistry, 2025)
